Experimental data taken from US20140315933A1, “CHEMICAL COMPOUNDS” (Pfizer Limited, priority 2013, published 2014).

Target: T1, URAT-1 transporter (Homo sapiens, UniProt Q96S37)
T1 construct: expressed in transfected cells
Experiment: URAT-1 inhibitor activity: [14C]-uric acid uptake into CHO-URAT1(L)GFP#8 (CHO#8) cells, scintillation proximity
Type: cell-based
Outline: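 CHO cells stably expressing human URAT1 long isoform C-terminally fused to eGFP, preincubated 1 hour in chloride-containing buffer, then 15 minutes with compound (0–10 μM, 0.25% DMSO) in chloride-free buffer pH 7.4. [14C]-uric acid at 30 nM final added; uptake read by scintillation proximity after three hours at room temperature, dark.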

T1 sequence (Q96S37 with tags, fused parts or gaps): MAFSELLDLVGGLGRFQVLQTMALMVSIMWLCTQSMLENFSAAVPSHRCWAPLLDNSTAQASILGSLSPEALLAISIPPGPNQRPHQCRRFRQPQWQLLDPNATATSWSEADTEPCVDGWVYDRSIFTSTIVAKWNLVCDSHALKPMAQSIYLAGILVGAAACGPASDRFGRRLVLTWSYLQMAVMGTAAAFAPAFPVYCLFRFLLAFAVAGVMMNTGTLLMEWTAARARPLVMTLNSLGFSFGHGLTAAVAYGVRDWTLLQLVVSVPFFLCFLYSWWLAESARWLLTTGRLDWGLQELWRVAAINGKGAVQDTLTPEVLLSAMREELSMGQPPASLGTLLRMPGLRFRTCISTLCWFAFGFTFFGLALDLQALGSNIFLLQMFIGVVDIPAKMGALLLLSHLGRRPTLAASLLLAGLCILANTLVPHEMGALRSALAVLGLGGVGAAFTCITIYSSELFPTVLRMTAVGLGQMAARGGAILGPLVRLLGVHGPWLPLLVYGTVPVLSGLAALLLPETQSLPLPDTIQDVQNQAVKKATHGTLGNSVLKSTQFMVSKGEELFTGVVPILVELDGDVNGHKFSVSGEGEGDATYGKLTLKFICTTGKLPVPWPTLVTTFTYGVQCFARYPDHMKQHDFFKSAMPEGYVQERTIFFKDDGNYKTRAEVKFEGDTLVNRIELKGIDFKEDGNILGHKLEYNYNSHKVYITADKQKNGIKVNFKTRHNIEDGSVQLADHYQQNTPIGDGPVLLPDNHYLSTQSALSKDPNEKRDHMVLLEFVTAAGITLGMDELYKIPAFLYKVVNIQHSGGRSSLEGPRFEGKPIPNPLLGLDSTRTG

Row | Compound | IC50
1 | O=S(=O)(Nc1cscn1)c1cc(Cl)c(Oc2ccc(C(F)(F)F)cc2Br)cc1F [Example 161, 4-[2-bromo-4-(trifluoromethyl)phenoxy]-5-chloro-2-fluoro-N-(1,3-thiazol-4-yl)benzenesulfonamide] | > 4850 nM
2 | CN(C)c1ccc(Oc2ccc(S(=O)(=O)Nc3nccs3)cc2C#N)cn1 [Example 186, 3-cyano-4-{[6-(dimethylamino)pyridin-3-yl]oxy}-N-(1,3-thiazol-2-yl)benzenesulfonamide] | 1080 nM
3 | CNc1ccc(Oc2ccc(S(=O)(=O)Nc3nccs3)cc2C#N)cn1 [Example 187, 3-cyano-4-{[6-(methylamino)pyridin-3-yl]oxy}-N-(1,3-thiazol-2-yl)benzenesulfonamide] | > 6640 nM
4 | CC(C)Nc1ccc(Oc2ccc(S(=O)(=O)Nc3nccs3)cc2C#N)cn1 [Example 188, 3-cyano-4-{[6-(propan-2-ylamino)pyridin-3-yl]oxy}-N-(1,3-thiazol-2-yl)benzenesulfonamide] | 688 nM
5 | CCOc1ccc(Oc2ccc(S(=O)(=O)Nc3nccs3)cc2C#N)cn1 [Example 191, 3-cyano-4-[(6-ethoxypyridin-3-yl)oxy]-N-(1,3-thiazol-2-yl)benzenesulfonamide] | > 10000 nM
6 | CC(C)Oc1ccc(Oc2ccc(S(=O)(=O)Nc3nccs3)cc2C#N)cn1 [Example 192, 3-cyano-4-{[6-(propan-2-yloxy)pyridin-3-yl]oxy}-N-(1,3-thiazol-2-yl)benzenesulfonamide] | > 10000 nM
7 | N#Cc1cc(S(=O)(=O)Nc2nccs2)ccc1Oc1ccc(F)c(F)c1 [Example 243, 3-cyano-4-(3,4-difluorophenoxy)-N-(1,3-thiazol-2-yl)benzenesulfonamide] | 77 nM
8 | N#Cc1ccc(Oc2ccc(S(=O)(=O)Nc3ncc(F)s3)cc2C#N)cc1Cl [Example 244, 4-(3-chloro-4-cyanophenoxy)-3-cyano-N-(5-fluoro-1,3-thiazol-2-yl)benzenesulfonamide] | 365 nM
9 | N#Cc1cc(Oc2ccc(S(=O)(=O)Nc3ncc(F)s3)cc2C#N)ccc1F [Example 245, 3-cyano-4-(3-cyano-4-fluorophenoxy)-N-(5-fluoro-1,3-thiazol-2-yl)benzenesulfonamide] | 2000 nM
10 | N#Cc1cc(Oc2ccc(S(=O)(=O)Nc3nccs3)cc2C#N)ccc1F [Example 246, 3-cyano-4-(3-cyano-4-fluorophenoxy)-N-(1,3-thiazol-2-yl)benzenesulfonamide] | 699 nM
11 | O=S(=O)(Nc1nncs1)c1ccc(Oc2ccc(F)c(F)c2)cc1Cl [Example 249, 2-chloro-4-(3,4-difluorophenoxy)-N-(1,3,4-thiadiazol-2-yl)benzenesulfonamide] | > 10000 nM
12 | N#Cc1ccc(Oc2c(F)cc(S(=O)(=O)Nc3ncns3)cc2Br)cc1Cl [Example 250, 3-bromo-4-(3-chloro-4-cyanophenoxy)-5-fluoro-N-(1,2,4-thiadiazol-5-yl)benzenesulfonamide] | 1880 nM
13 | N#Cc1cc(S(=O)(=O)Nc2nncs2)ccc1Oc1cnc(OC(F)F)c(Cl)c1 [Example 334] | 2030 nM
14 | CC(Oc1ncc(Oc2ccc(S(=O)(=O)Nc3nncs3)cc2C#N)cc1Cl)C(F)(F)F (stereo not drawn) [Example 335] | 3260 nM
15 | Cc1cc(Oc2ccc(S(=O)(=O)Nc3nncs3)cc2C#N)cc(C)c1C#N [Example 337, 3-cyano-4-(4-cyano-3,5-dimethylphenoxy)-N-(1,3,4-thiadiazol-2-yl)benzenesulfonamide] | 112 nM
16 | COc1ncc(Oc2ccc(S(=O)(=O)Nc3nncs3)cc2C#N)cc1Cl [Example 338] | 797 nM
17 | CC(C)(F)COc1ncc(Oc2ccc(S(=O)(=O)Nc3nncs3)cc2C#N)cc1Cl [Example 339] | > 10000 nM
18 | N#Cc1cc(S(=O)(=O)Nc2nncs2)ccc1Oc1ccc(CO)c(Cl)c1 [Example 341, 4-[3-chloro-4-(hydroxymethyl)phenoxy]-3-cyano-N-(1,3,4-thiadiazol-2-yl)benzenesulfonamide] | 9 nM
19 | N#Cc1cc(S(=O)(=O)Nc2nccs2)ccc1Oc1ccc(Cl)cc1C(F)(F)F [compound 163] | 681 nM
20 | N#Cc1cc(S(=O)(=O)Nc2nccs2)ccc1Oc1ccc(I)cc1 [compound 165] | 505 nM
21 | N#Cc1cc(S(=O)(=O)Nc2nccs2)ccc1Oc1ccc(C(F)(F)F)cc1Br [compound 166] | 2680 nM
22 | N#Cc1cc(S(=O)(=O)Nc2nccs2)ccc1Oc1cccc(I)c1 [compound 167] | 166 nM
23 | N#Cc1cc(S(=O)(=O)Nc2nccs2)ccc1Oc1ccc(Cl)c(I)c1 [compound 169] | 73 nM
24 | N#Cc1cc(S(=O)(=O)Nc2nccs2)ccc1Oc1ccc(Br)cc1F [compound 170] | > 1260 nM
25 | N#Cc1cc(S(=O)(=O)Nc2nccs2)ccc1Oc1ccccc1CCO [compound 176] | > 6000 nM
26 | N#Cc1cc(S(=O)(=O)Nc2nccs2)ccc1Oc1cccc(CO)c1 [compound 177] | 584 nM
27 | N#Cc1cc(S(=O)(=O)Nc2nccs2)ccc1Oc1ccc(I)cc1F [compound 178] | 645 nM

Results, then the molecule that gave them:

Row | IC50 | Compound
28 | > 10000 nM | CCNc1ccc(Oc2ccc(S(=O)(=O)Nc3nccs3)cc2C#N)cn1 [Example 189, 3-cyano-4-{[6-(ethylamino)pyridin-3-yl]oxy}-N-(1,3-thiazol-2-yl)benzenesulfonamide]
29 | > 10000 nM | N#Cc1cc(S(=O)(=O)Nc2nccs2)ccc1Oc1ccc(OCC(F)(F)F)nc1 [Example 190, 3-cyano-N-(1,3-thiazol-2-yl)-4-{[6-(2,2,2-trifluoroethoxy)pyridin-3-yl]oxy}benzenesulfonamide]
30 | 450 nM | N#Cc1ccc(Oc2ccc(S(=O)(=O)Nc3ncc(Cl)s3)cc2C#N)cc1Cl [Example 247, 4-(3-chloro-4-cyanophenoxy)-N-(5-chloro-1,3-thiazol-2-yl)-3-cyanobenzenesulfonamide]
31 | > 1200 nM | N#Cc1cc(S(=O)(=O)Nc2ncc(F)s2)ccc1Oc1ccc(F)c(F)c1 [Example 248, 3-cyano-4-(3,4-difluorophenoxy)-N-(5-fluoro-1,3-thiazol-2-yl)benzenesulfonamide]
32 | 7540 nM | CC(C)Oc1ncc(Oc2ccc(S(=O)(=O)Nc3nncs3)cc2C#N)cc1Cl [Example 333]
33 | 3910 nM | N#Cc1cc(S(=O)(=O)Nc2nncs2)ccc1Oc1cnc(OC2CCC2)c(Cl)c1 [Example 336]
34 | 484 nM | Cc1nnc(NS(=O)(=O)c2ccc(Oc3ccc(C#N)c(Cl)c3)c(C#N)c2)s1 [Example 340, 4-(3-chloro-4-cyanophenoxy)-3-cyano-N-(5-methyl-1,3,4-thiadiazol-2-yl)benzenesulfonamide]
35 | 565 nM | N#Cc1cc(S(=O)(=O)Nc2nccs2)ccc1Oc1ccc(Cl)cc1OC(F)(F)F [compound 162]
36 | > 10000 nM | N#Cc1cc(S(=O)(=O)Nc2nccs2)ccc1Oc1ccc(OC(F)(F)F)cc1Br [compound 164]
37 | 161 nM | N#Cc1cc(S(=O)(=O)Nc2nccs2)ccc1Oc1ccc(Br)c(F)c1 [compound 168]
38 | 671 nM | N#Cc1cc(S(=O)(=O)Nc2nccs2)ccc1Oc1ccc(Br)nc1 [compound 171]
39 | 917 nM | N#Cc1cc(S(=O)(=O)Nc2nccs2)ccc1Oc1ccc(Cl)nc1 [compound 172]
40 | > 3660 nM | COc1ccc(Oc2ccc(S(=O)(=O)Nc3nccs3)cc2C#N)cn1 [compound 173]
41 | 237 nM | CC(C)c1cc(C#N)cc(Oc2ccc(S(=O)(=O)Nc3nccs3)cc2C#N)c1 [compound 174]
42 | > 5440 nM | N#Cc1cc(S(=O)(=O)Nc2nccs2)ccc1Oc1cccc(CCO)c1 [compound 175]
